From patent US9353089B2, “Compositions and methods for the treatment of malaria” (Saint Louis University, priority 2013, dated 2016)

Key:
[1] = MLM metabolic stability assay; assay type: in vitro ADME; conditions: pH 7.4, mouse liver microsomes, read-out: MLM t1/2
Description: (§1) In this protocol, the metabolic stability of compounds at 1 μM was determined in Mouse Liver Microsome (MLM), rat liver microsomes (RLM) or human liver microsomes (HLM). […]. After incubation at 37° C. for a specific time period (0, 5, 10, 20 and 30 min), the reaction was terminated by the addition of 200 μL ice cold acetonitrile containing internal standard (100 ng/mL) after 100 μL aliquots of reaction mixture was removed. The quenched reaction mixtures were centrifuged at 3200 rpm for 5 min, and 100 μL of the supernatant were transferred to 96-well deep plate. The samples in 96 well plate were analyzed by LC-MS/MS using an Applied Biosystems-Sciex model API 3000 mass spectrometer. The data were analyzed using the following equations. […]

[2] = HLM metabolic stability assay; assay type: in vitro ADME; conditions: pH 7.4, human liver microsomes, read-out: HLM t1/2
Description: as §1

| Compound | half-life at 1 μM [1] | half-life at 1 μM [2] |
| --- | --- | --- |
| COc1ccc(C2(c3ccc(OC)cc3)NC(=N)N(C3CCN(C(=O)OC(C)(C)C)CC3)C2=O)cc1 [Example 206, tert-butyl 4-[2-imino-4,4-bis(4-methoxyphenyl)-5-oxoimidazolidin-1-yl]piperidine-1-carboxylate] | 26 min | – |
| COc1ccc(C2(c3ccc(OC)cc3)NC(=N)N(C3CCOCC3)C2=O)cc1 [Example 176, 2-imino-5,5-bis(4-methoxyphenyl)-3-(oxan-4-yl)-imidazolidin-4-one] | – | 36 min |
